{"source": "paper PMC6675714", "about": "(Cancer Medicine, 2019)", "key": {"[1]": {"assay": "Plasma pharmacokinetics after single ip injection (Ru by ICP‐MS)", "format": "in vivo", "experimental": "Blood was collected from submandibular vein using a heparin coated glass capillary into heparinized blood collection tubes on ice at time intervals of 1, 2, 6, 12, 24, 48, and 72 hours post injection. Plasma was harvested by centrifuging blood samples at 2800 rpm for 15 minutes at 4°C and stored frozen at − 80°C until analysis. Similarly, kidney, liver, and tumor were harvested after final time point, weighed, and stored into glass vials. One mL of deionized water was added to each tissue sample, subjected to ultrasonic homogenization at 15 W power for 1 minute, followed by lyophilization.\nPlasma and tissue concentrations of Ru and Au were measured using inductively coupled plasma–mass spectrometry (ICP‐MS). Plasma (10 μL) or tissue samples were transferred into glass vials, and 1 mL of a 75:25 mixture of nitric acid (16 N) and hydrochloric acid (12 N) was added to each vial. The mixture was then heated at 90°C for 5 hours. After cooling to room temperature, the samples were centrifuged to remove debris if any. All samples were then mixed with 40 ppb of indium internal standard and analyzed using a Thermo Scientific XSERIES 2 ICP‐MS coupled with ESI PC3 Peltier cooled spray chamber, SC‐FAST injection loop, and SC‐4 autosampler. All the elements were measured using He/H2 collision‐reaction mode.\nPharmacokinetic parameters were obtained from the plasma concentration–time profiles by noncompartmental analysis using Phoenix WinNonlin 6.4 version 6.4 (Pharsight Corporation, Mountain View, CA). The pharmacokinetic parameters quantified were the maximum plasma drug concentration (Cmax), the time to reach Cmax (Tmax), the area under the plasma concentration–time curve from 0 hour to last measurable concentration (AUClast), elimination rate constant (ke), plasma half‐life (t1/2), apparent total clearance of the drug from plasma (Cl/F), and apparent volume of distribution (Vd/F). Concentrations of ruthenium and gold in liver, kidney, and tumors were also determined."}, "[2]": {"assay": "Plasma chemistry parameters after the trial", "format": "in vivo, tumor bearing NOD-SCID mice", "experimental": "Supplementary Table 1. Summary of plasma chemistry parameters metabolic analytes for three specimens (collected 72h after the last dose of 10mg/kg/72h at the end of a 21 day trial) from 3 tumor bearing NOD-SCID (NOD/LtSz-Prkdscid/j. The study criteria reflect pathological criterion used in clinical studies. Metabolic markers were quantified from freshly isolated plasma and compared to reference range."}, "[3]": {"assay": "Hematology values (complete blood count) after the trial", "format": "in vivo, NOD-SCID mice", "experimental": "Supplementary Table 2. Summary of hematology values (mean) for three specimens (collected 72h after the last dose of 10mg/kg/72h at the end of a 21 day trial (NOD/LtSz-Prkdscid/j. Complete blood counts of each group (n = 3 mice per group). Heparinized blood acquired from mice was assessed using the automatic Hematology Analyzer. Blood smears were carried out and fixed with methanol, stained, and observed under the microscope to carry out differential blood white cell counts."}, "Caki‐1 xenograft tumors": {"tested_on": "Caki‐1 xenograft tumors", "assay": "Protein expression in tumor lysates (Proteome Profiler arrays)", "format": "in vivo, NOD.CB17‐Prkdc SCID/J mice", "conditions": "tumor lysate, 21‐day trial, vs vehicle", "experimental": "Whole tumors were extracted at the trial endpoint and lysed. Before application to the array, protein concentration was determined by BCA. Then 150 µg of lysate was incubated for 24 hours with the Proteome Profiler Human XL Oncology Array (ARY026, R&D Systems) and Human Cell Stress Array (ARY018, R&D Systems). The relative expression levels of the proteases were determined according to the manufacturer's protocol, and signal intensities were compared using HLImage^++ software."}, "[4]": {"conditions": "plasma 72h after last dose of 10mg/kg/72h, 21 day trial"}, "[5]": {"conditions": "automatic count, blood 72h after last dose, 21 day trial, mean n = 3"}}, "note": "Values joined by “and” are separate entries in the source; they are usually repeats but may differ in a detail not shown here. Equal entries are not always repeated. “Also recorded” adds a separate entry of the source.", "data": [{"substance": "[Cl2(p‐cymene)Ru(μ‐dppm)Au(IMes)]ClO4 [RANCE‐1]", "values": [{"measurement": "Time to reach steady state", "setting": "[1]; 10 mg/kg ip", "result": "203.8 ± 93.4", "unit": "h"}, {"measurement": "AUC0‐72h", "setting": "[1]; 10 mg/kg single ip, plasma", "result": "792.9 ± 270.3", "unit": "µg·h/mL"}, {"measurement": "Cl/F", "setting": "[1]; 10 mg/kg single ip, plasma", "result": "0.1667 ± 0.0525", "unit": "mL/min/kg"}, {"measurement": "Cmax", "setting": "[1]; 10 mg/kg single ip, plasma", "result": "22600 ± 2580", "unit": "ng/mL"}, {"measurement": "Vd/F", "setting": "[1]; 10 mg/kg single ip, plasma", "result": "0.6121 ± 0.429", "unit": "L/kg"}, {"measurement": "t1/2", "setting": "[1]; 10 mg/kg single ip, plasma", "result": "40.8 h and 40 h and 40.77 ± 18.67 h"}, {"measurement": "Tmax", "setting": "[1]; 10 mg/kg single ip, plasma Ru", "result": "10.00 ± 3.46", "unit": "h"}, {"measurement": "Cminss", "setting": "[1]; predicted, based on a dose of 10 mg/kg every 72 h", "result": "7170 ± 3910", "unit": "ng/mL"}, {"measurement": "Clinical chemistry, treated vs control animals", "setting": "[2]; end of trial", "result": "no differences"}, {"measurement": "Kidney health indicators", "setting": "[2]; end of trial", "result": "within normal values"}, {"measurement": "DBIL", "setting": "[2]; [4]", "result": 0.033, "unit": "mg/dL"}, {"measurement": "GGT", "setting": "[2]; [4]", "result": 0, "unit": "U/L"}, {"measurement": "IBIL", "setting": "[2]; [4]", "result": 0.2, "unit": "mg/dL"}, {"measurement": "TCO2", "setting": "[2]; [4]", "result": 18, "unit": "mEq/L"}, {"measurement": "Anion Gap", "setting": "[2]; plasma 72h after last dose of 10mg/kg/72h, 21 day trial, marked *▴", "result": 37.63}, {"measurement": "CREA", "setting": "[2]; plasma 72h after last dose of 10mg/kg/72h, 21 day trial, reference range 0.2-0.5", "result": 0.117, "unit": "mg/dL"}, {"measurement": "TBIL", "setting": "[2]; plasma 72h after last dose of 10mg/kg/72h, 21 day trial, reference range 0.2-0.6", "result": 0.23, "unit": "mg/dL"}, {"measurement": "GLOB", "setting": "[2]; plasma 72h after last dose of 10mg/kg/72h, 21 day trial, reference range 1.7-2.2", "result": 2.63, "unit": "g/dL"}, {"measurement": "ALB", "setting": "[2]; plasma 72h after last dose of 10mg/kg/72h, 21 day trial, reference range 2.4-4.3", "result": 2.57, "unit": "g/dL"}, {"measurement": "ALT", "setting": "[2]; plasma 72h after last dose of 10mg/kg/72h, 21 day trial, reference range 27-195", "result": 170.66, "unit": "U/L"}, {"measurement": "AST", "setting": "[2]; plasma 72h after last dose of 10mg/kg/72h, 21 day trial, reference range 54-77", "result": 394.67, "unit": "U/L"}, {"measurement": "CHOL", "setting": "[2]; plasma 72h after last dose of 10mg/kg/72h, 21 day trial, reference range 55-169", "result": 87.67, "unit": "mg/dL"}, {"measurement": "TRIG", "setting": "[2]; plasma 72h after last dose of 10mg/kg/72h, 21 day trial, reference range 67-289, marked *▾", "result": 116, "unit": "mg/dL"}, {"measurement": "ALP", "setting": "[2]; plasma 72h after last dose of 10mg/kg/72h, 21 day trial, reference range 105-370, marked *▾", "result": 39.33, "unit": "U/L"}, {"measurement": "Cl", "setting": "[2]; plasma 72h after last dose of 10mg/kg/72h, 21 day trial, reference range 111-134", "result": 106, "unit": "mEq/L"}, {"measurement": "GLU", "setting": "[2]; plasma 72h after last dose of 10mg/kg/72h, 21 day trial, reference range 172-372, marked *▾", "result": 165, "unit": "mg/dL"}, {"measurement": "RBC", "setting": "[3]; automatic count, blood 72h after last dose of 10mg/kg/72h, 21 day trial, mean n = 3, reference range 7.84-10.84", "result": 10.31, "unit": "M/uL"}, {"measurement": "PDW", "setting": "[3]; [5]", "result": 7.5, "unit": "fL"}, {"measurement": "RDW-SD", "setting": "[3]; [5]", "result": 31.03, "unit": "fL"}, {"measurement": "RET", "setting": "[3]; automatic count, blood 72h after last dose, 21 day trial, mean n = 3, reference range 2.56-4.56, marked *▾", "result": 2.03, "unit": "%"}, {"measurement": "MPV", "setting": "[3]; automatic count, blood 72h after last dose, 21 day trial, mean n = 3, reference range 4.2-6.3", "result": 6.53, "unit": "fL"}, {"measurement": "HGB", "setting": "[3]; automatic count, blood 72h after last dose, 21 day trial, mean n = 3, reference range 11.8-17.6", "result": 15.8, "unit": "g/dL"}, {"measurement": "MCH", "setting": "[3]; automatic count, blood 72h after last dose, 21 day trial, mean n = 3, reference range 13.7-17.2", "result": 15.37, "unit": "pg"}, {"measurement": "RDW-CV", "setting": "[3]; automatic count, blood 72h after last dose, 21 day trial, mean n = 3, reference range 17.3-20.3", "result": 23.5, "unit": "%"}, {"measurement": "MCHC", "setting": "[3]; automatic count, blood 72h after last dose, 21 day trial, mean n = 3, reference range 25.1-31.3", "result": 29.9, "unit": "g/dL"}, {"measurement": "HCT", "setting": "[3]; automatic count, blood 72h after last dose, 21 day trial, mean n = 3, reference range 44.1-58.3", "result": 52.8, "unit": "%"}, {"measurement": "MCV", "setting": "[3]; automatic count, blood 72h after last dose, 21 day trial, mean n = 3, reference range 51.1-58.6", "result": 51.3, "unit": "fL"}, {"measurement": "RET#", "setting": "[3]; automatic count, blood 72h after last dose, 21 day trial, mean n = 3, reference range 294-444, marked *▾", "result": 192.67, "unit": "K/uL"}, {"measurement": "PLT", "setting": "[3]; automatic count, blood 72h after last dose, 21 day trial, mean n = 3, reference range 651-2055, marked *▾", "result": 1056.67, "unit": "K/uL"}, {"measurement": "Morphology (manual differential section)", "setting": "[3]; blood smears, end of 21 day trial", "result": "Many neutrophils are hypersegmented."}, {"measurement": "Morphology (automatic count section)", "setting": "[3]; blood smears, three specimens, end of 21 day trial", "result": "2+ PLT clumps. RBC morphology is within normal limits. 4+ polychromasia. 2+ acanthocytes. 4+ polychromasia. 2+ acanthocytes."}, {"measurement": "Physicochemical study and complete blood count", "setting": "[3]; end of trial", "result": "no significant changes"}, {"measurement": "Band#", "setting": "[3]; manual differential, blood 72h after last dose, 21 day trial", "result": 0, "unit": "K/uL"}, {"measurement": "MONO#", "setting": "[3]; manual differential, blood 72h after last dose, 21 day trial, reference range 0.03-0.26", "result": 0, "unit": "K/uL"}, {"measurement": "LYMPH#", "setting": "[3]; manual differential, blood 72h after last dose, 21 day trial, reference range 0.23-1.56, marked *▴", "result": 0.6167, "unit": "K/uL"}, {"measurement": "Neut#", "setting": "[3]; manual differential, blood 72h after last dose, 21 day trial, reference range 0.54-3.16, marked *▴, ◎", "result": 8.55, "unit": "K/uL"}, {"measurement": "MONO", "setting": "[3]; manual differential, blood 72h after last dose, 21 day trial, reference range 1.71-10.93, marked *▾", "result": 2, "unit": "%"}, {"measurement": "LYMPH", "setting": "[3]; manual differential, blood 72h after last dose, 21 day trial, reference range 13.51-42.61, marked *▾", "result": 15.67, "unit": "%"}, {"measurement": "NEUT", "setting": "[3]; manual differential, blood 72h after last dose, 21 day trial, reference range 44.21-79.92, marked *▴", "result": 80.67, "unit": "%"}, {"measurement": "CCL7 and CCL8 levels", "setting": "Caki‐1 xenograft tumors", "result": "decrease"}, {"measurement": "Expression of CapG protein", "setting": "Caki‐1 xenograft tumors", "result": "suppressed"}, {"measurement": "Expression of HIF‐1a, ICAM, VE‐Cadherin, and VCAM‐1", "setting": "Caki‐1 xenograft tumors", "result": "significantly decreased"}, {"measurement": "Expression of growth factors VEGF, PDGF, FGF, EGFR, and HGRF", "setting": "Caki‐1 xenograft tumors", "result": "Significant reduction; also recorded: decrease"}, {"measurement": "Expression of immune factors IL‐2R and GM‐CSF", "setting": "Caki‐1 xenograft tumors", "result": "increase"}, {"measurement": "M‐CSF expression", "setting": "Caki‐1 xenograft tumors", "result": "increase"}, {"measurement": "Prometastatic factors CtsB, CtsS, FoxC2, MMP‐2, MMP‐3, MMP‐8, ADAM8, and ADAMP9", "setting": "Caki‐1 xenograft tumors", "result": "significant decrease"}]}]}
